Read-outs that look alike come from different tables or passages of the source. *1 amine or outer side, *2 acyl side, *3 side chain or, on linkers, in order; H or OH if unused. Where a SMILES comes first, the peptide text is derived from it. Bridges are numbered along the chain shown (N, C = ends). [ ]: non-standard residue; d: D form. ξ: configuration not given here. Trp(1-CH2COOH) = N[C@@H](Cc1cn(CC(=O)O)c2ccccc12)C(=O)O; Phe(3,4,5-F3) = N[C@@H](Cc1cc(F)c(F)c(F)c1)C(=O)O; Trp(1-Me) = Cn1cc(C[C@H](N)C(=O)O)c2ccccc21; Morpholine(3S-CO) = O=C(O)[C@@H]1COCCN1; Phe(4-F) = N[C@@H](Cc1ccc(F)cc1)C(=O)O; X4 = CC1(C)CC[C@H](C(=O)[*:2])N1[*:1]; d(cisHyp) = O=C(O)[C@H]1C[C@@H](O)CN1; Bta = N[C@@H](Cc1csc2ccccc12)C(=O)O; Hyp = O=C(O)[C@@H]1C[C@@H](O)CN1; NMeF = CN[C@@H](Cc1ccccc1)C(=O)O; X1 = O=C([C@H]1COCCN1[*:1])[*:2]; dPip(4-aza) = O=C(O)[C@H]1CNCCN1; NMeNle = CCCC[C@H](NC)C(=O)O; Pip = O=C(O)[C@@H]1CCCCN1; dPip = O=C(O)[C@H]1CCCCN1; hSer = N[C@@H](CCO)C(=O)O; NMeA = CN[C@@H](C)C(=O)O; Orn = NCCC[C@H](N)C(=O)O; Dab = NCC[C@H](N)C(=O)O; ξC = NC(CS)C(=O)O; Sar = CNCC(=O)O
Target: T1, Human PD-L1/PD-1 (Homo sapiens, UniProt Q9NZQ7)
T1 construct: TVMV protease cleavage site (C); made in house; host or cells: HEK293T cells
Assay: HTRF Human PD-L1/PD-1 binding assay (PD-1-Ig/PD-L1-His)
Details: PD-L1-His 10 nM, PD-1-Ig 20 nM
In short: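 Inhibitors were preincubated 15 min with human PD-L1(18-239)-His (10 nM final), then PD-1(25-167)-Ig (20 nM final) was added for 15 min in dPBS/0.1% BSA/0.05% Tween-20. Eu-cryptate anti-Ig (1 nM) and APC anti-His (20 nM) were added; 665/620 nm ratio read after 30 min.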

[1] = class symbol, read-out: HTRF Human PD-L1/PD-1 Binding Assay IC50 Range

T1 sequence (Q9NZQ7 with tags, fused parts or gaps): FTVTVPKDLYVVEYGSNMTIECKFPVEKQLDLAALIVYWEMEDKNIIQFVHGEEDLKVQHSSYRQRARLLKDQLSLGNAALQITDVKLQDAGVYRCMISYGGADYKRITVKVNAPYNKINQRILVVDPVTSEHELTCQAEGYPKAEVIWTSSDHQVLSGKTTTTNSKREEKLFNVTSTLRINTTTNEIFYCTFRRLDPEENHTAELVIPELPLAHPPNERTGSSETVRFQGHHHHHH

Compound | IC50 [1] [nM] | IC50 (read-out: HTRF Human PD-L1/PD-1 Binding Assay IC50) [nM]
CCCC[C@H]1C(=O)N(C)[C@@H](CCCC)C(=O)N[C@@H](CCCNC(=N)N)C(=O)NC(C(=O)NCC(N)=O)CSCC(=O)N[C@@H](Cc2ccc(O)cc2)C(=O)N(C)[C@@H](C)C(=O)N[C@@H](Cc2cnc[nH]2)C(=O)N2CCC[C@H]2C(=O)N[C@@H](CC(N)=O)C(=O)N[C@@H](CC(C)C)C(=O)N2C[C@H](O)C[C@H]2C(=O)N[C@@H](Cc2c[nH]c3ccccc23)C(=O)N[C@@H](CO)C(=O)N[C@@H](Cc2c[nH]c3ccccc23)C(=O)N1C (stereo partly drawn) [Example 9146] ({CH2CO}-Y[NMeA]HPNL[Hyp]WSW[NMeNle][NMeNle]R[ξC]G-NH2; thioether N-14) | 1 to 9.9 | –
CCCC[C@H]1C(=O)N(C)[C@@H](CCCC)C(=O)N[C@@H](CCC(=O)O)C(=O)NC(C(=O)NCC(N)=O)CSCC(=O)N[C@@H](Cc2ccc(O)cc2)C(=O)N(C)[C@@H](C)C(=O)N[C@@H](CC(N)=O)C(=O)N2CCC[C@H]2C(=O)N[C@@H](CC(N)=O)C(=O)N[C@@H](CC(C)C)C(=O)N2C[C@H](O)C[C@H]2C(=O)N[C@@H](Cc2c[nH]c3ccccc23)C(=O)N[C@@H](CCO)C(=O)N[C@@H](Cc2c[nH]c3ccccc23)C(=O)N1C (stereo partly drawn) [Example 9185] ({CH2CO}-Y[NMeA]NPNL[Hyp]W[hSer]W[NMeNle][NMeNle]E[ξC]G-NH2; thioether N-14) | 1 to 9.9 | –
CCCC[C@H]1C(=O)N2C[C@H](O)C[C@@H]2C(=O)N[C@@H](CC(=O)O)C(=O)N[C@@H](C(C)C)C(=O)N(C)[C@@H](Cc2ccccc2)C(=O)N[C@@H](CCCN)C(=O)N2CCNC[C@@H]2C(=O)N[C@@H](Cc2c[nH]c3ccccc23)C(=O)N[C@@H](Cc2ccc(O)cc2)C(=O)N[C@@H](CCO)C(=O)N[C@H](C(=O)NCC(N)=O)CSCC(=O)N[C@@H](Cc2cc(F)c(F)c(F)c2)C(=O)N(C)[C@@H](Cc2ccccc2)C(=O)N1C [Example 10169] ({CH2CO}-[Phe(3,4,5-F3)][NMeF][NMeNle][d(cisHyp)]DV[NMeF][Orn][dPip(4-aza)]WY[hSer]CG-NH2; thioether N-13) | 1 to 9.9 | –
CCCC[C@H]1C(=O)N2CCC[C@@H]2C(=O)N[C@@H](CO)C(=O)N[C@@H](C)C(=O)N(C)[C@@H](Cc2ccccc2)C(=O)N[C@@H](Cc2ccc(O)cc2)C(=O)N2CCCC[C@@H]2C(=O)N[C@@H](Cc2c[nH]c3ccccc23)C(=O)N[C@@H](Cc2ccc(O)cc2)C(=O)N[C@@H](CC(C)C)C(=O)N[C@H](C(=O)NCC(N)=O)CSCC(=O)N[C@@H](Cc2ccccc2)C(=O)N(C)[C@@H](Cc2ccccc2)C(=O)N1C [Example 10056] ({CH2CO}-F[NMeF][NMeNle][dP]SA[NMeF]Y[dPip]WYLCG-NH2; thioether N-13) | 100 to 990 | –
CCCC[C@H]1C(=O)N(C)CC(=O)N[C@@H](CC(=O)O)C(=O)N[C@@H](C(C)C)C(=O)N(C)[C@@H](Cc2ccccc2)C(=O)N[C@@H](Cc2ccc(O)cc2)C(=O)N2[C@H](CCC2(C)C)C(=O)N[C@@H](Cc2c[nH]c3ccccc23)C(=O)N[C@@H](Cc2ccc(O)cc2)C(=O)N[C@@H](CC(C)C)C(=O)N[C@H](C(=O)NCC(N)=O)CSCC(=O)N[C@@H](Cc2ccccc2)C(=O)N(C)[C@@H](Cc2ccccc2)C(=O)N1C [Example 3210] ({CH2CO}-F[NMeF][NMeNle][Sar]DV[NMeF]Y[X4]WYLCG-NH2; thioether N-13) | – | 1000
CCCC[C@H]1C(=O)N(C)[C@@H](CCCC)C(=O)N[C@@H](CCC(=O)O)C(=O)N[C@H](C(=O)NCC(N)=O)CSCC(=O)N[C@@H](Cc2ccc(O)cc2)C(=O)N2CCCC[C@H]2C(=O)N[C@@H](CC(N)=O)C(=O)N2CCC[C@H]2C(=O)N[C@@H](Cc2cnc[nH]2)C(=O)N[C@@H](CCC(=O)O)C(=O)N2C[C@H](O)C[C@H]2C(=O)N[C@@H](Cc2c[nH]c3ccccc23)C(=O)N[C@@H](CO)C(=O)N[C@@H](Cc2cn(C)c3ccccc23)C(=O)N1C [Example 1504] ({CH2CO}-Y[Pip]NPHE[Hyp]WS[Trp(1-Me)][NMeNle][NMeNle]ECG-NH2; thioether N-14) | 10 to 99.9 | –
CCCC[C@H]1C(=O)N2C[C@H](O)C[C@@H]2C(=O)N[C@@H](CC(=O)O)C(=O)N[C@@H](C(C)C)C(=O)N(C)[C@@H](Cc2ccccc2)C(=O)N[C@@H](CCC(=O)O)C(=O)N2C[C@H](O)C[C@@H]2C(=O)N[C@@H](Cc2c[nH]c3ccccc23)C(=O)N[C@@H](Cc2ccc(O)cc2)C(=O)N[C@@H](CCC(N)=O)C(=O)N[C@H](C(=O)NCC(N)=O)CSCC(=O)N[C@@H](Cc2cc(F)c(F)c(F)c2)C(=O)N(C)[C@@H](Cc2ccccc2)C(=O)N1C [Example 9337] ({CH2CO}-[Phe(3,4,5-F3)][NMeF][NMeNle][d(cisHyp)]DV[NMeF]E[d(cisHyp)]WYQCG-NH2; thioether N-13) | 10 to 99.9 | –
CCCC[C@H]1C(=O)N(C)[C@@H](CCCC)C(=O)N[C@@H](C)C(=O)N[C@H](C(=O)NCC(N)=O)CSCC(=O)N[C@@H](Cc2ccc(O)cc2)C(=O)N(C)[C@@H](C)C(=O)N[C@@H](CC(N)=O)C(=O)N2CCOC[C@H]2C(=O)N[C@@H](Cc2cnc[nH]2)C(=O)N[C@@H](CCC(N)=O)C(=O)N2C[C@H](O)C[C@H]2C(=O)N[C@@H](Cc2c[nH]c3ccccc23)C(=O)N[C@@H](CO)C(=O)N[C@@H](Cc2c[nH]c3ccccc23)C(=O)N1C [Example 1280] ({CH2CO}-Y[NMeA]N[Morpholine(3S-CO)]HQ[Hyp]WSW[NMeNle][NMeNle]ACG-NH2; thioether N-14) | 10 to 99.9 | –
CCCC[C@H]1C(=O)N(C)[C@@H](CCCC)C(=O)N[C@@H](CCCNC(=N)N)C(=O)NC(C(=O)NCC(N)=O)CSCC(=O)N[C@@H](Cc2ccc(O)cc2)C(=O)N(C)[C@@H](C)C(=O)N[C@@H](CC(N)=O)C(=O)N2CCC[C@H]2C(=O)N[C@@H](CCO)C(=O)N[C@@H](CC(C)C)C(=O)N2C[C@H](O)C[C@H]2C(=O)N[C@@H](Cc2c[nH]c3ccccc23)C(=O)N[C@@H](CO)C(=O)N[C@@H](Cc2csc3ccccc23)C(=O)N1C (stereo partly drawn) [Example 9150] ({CH2CO}-Y[NMeA]NP[hSer]L[Hyp]WS[Bta][NMeNle][NMeNle]R[ξC]G-NH2; thioether N-14) | 1 to 9.9 | –
CCCC[C@H]1C(=O)N(C)[C@@H](CCCC)C(=O)N[C@@H](CC(C)C)C(=O)N[C@H](C(=O)NCC(N)=O)CSCC(=O)N[C@@H](Cc2ccc(O)cc2)C(=O)N(C)[C@@H](C)C(=O)N[C@@H](CC(N)=O)C(=O)N2CCC[C@H]2C(=O)N[C@@H](CC(N)=O)C(=O)N[C@@H](CCC(N)=O)C(=O)N2C[C@H](O)C[C@H]2C(=O)N[C@@H](Cc2c[nH]c3ccccc23)C(=O)N[C@@H](CCN)C(=O)N[C@@H](Cc2cn(CC(=O)O)c3ccccc23)C(=O)N1C [Example 6118] ({CH2CO}-Y[NMeA]NPNQ[Hyp]W[Dab][Trp(1-CH2COOH)][NMeNle][NMeNle]LCG-NH2; thioether N-14) | 1 to 9.9 | –
CCCC[C@H]1C(=O)N2C[C@H](O)C[C@@H]2C(=O)N[C@@H](CC(=O)O)C(=O)N[C@@H](C(C)C)C(=O)N(C)[C@@H](Cc2ccccc2)C(=O)N[C@@H](CCOC)C(=O)N2CCOC[C@@H]2C(=O)N[C@@H](Cc2c[nH]c3ccccc23)C(=O)N[C@@H](Cc2ccc(O)cc2)C(=O)N[C@@H](CC(C)C)C(=O)N[C@H](C(=O)NCC(N)=O)CSCC(=O)N[C@@H](Cc2cc(F)c(F)c(F)c2)C(=O)N(C)[C@@H](Cc2ccccc2)C(=O)N1C [Example 10194] ({CH2CO}-[Phe(3,4,5-F3)][NMeF][NMeNle][d(cisHyp)]DV[NMeF][hSer](Me)[X1]WYLCG-NH2; thioether N-13) | 10 to 99.9 | –
CCCC[C@H]1C(=O)N(C)[C@@H](CCCC)C(=O)N[C@@H](CCC(=O)O)C(=O)N[C@H](C(=O)NCC(N)=O)CSCC(=O)N[C@@H](Cc2ccc(O)cc2)C(=O)N(C)[C@@H](C)C(=O)N[C@@H](CC(N)=O)C(=O)N2CCC[C@H]2C(=O)N[C@@H](CO)C(=O)N[C@@H](CC(C)C)C(=O)N2C[C@H](O)C[C@H]2C(=O)N[C@@H](Cc2c[nH]c3ccccc23)C(=O)N[C@@H](CCN)C(=O)N[C@@H](Cc2c[nH]c3ccccc23)C(=O)N1C [Example 5247] ({CH2CO}-Y[NMeA]NPSL[Hyp]W[Dab]W[NMeNle][NMeNle]ECG-NH2; thioether N-14) | 1 to 9.9 | –
CCCC[C@H]1C(=O)N(C)[C@@H](CCCC)C(=O)N[C@@H](CCCNC(=N)N)C(=O)N[C@H](C(=O)NCC(N)=O)CSCC(=O)N[C@@H](Cc2ccc(F)cc2)C(=O)N(C)[C@@H](C)C(=O)N[C@@H](CC(N)=O)C(=O)N2CCC[C@H]2C(=O)N[C@@H](Cc2cnc[nH]2)C(=O)N[C@@H](CCC(=O)O)C(=O)N2C[C@H](O)C[C@H]2C(=O)N[C@@H](Cc2c[nH]c3ccccc23)C(=O)N[C@@H](CO)C(=O)N[C@@H](Cc2c[nH]c3ccccc23)C(=O)N1C [Example 7082] ({CH2CO}-[Phe(4-F)][NMeA]NPHE[Hyp]WSW[NMeNle][NMeNle]RCG-NH2; thioether N-14) | 1 to 9.9 | –
CCCC[C@H]1C(=O)N(C)[C@@H](CCCC)C(=O)N[C@@H](CCCNC(=N)N)C(=O)N[C@H](C(=O)NCC(N)=O)CSCC(=O)N[C@@H](Cc2ccc(O)cc2)C(=O)N(C)[C@@H](C)C(=O)N[C@@H](CC(N)=O)C(=O)N2CCC[C@H]2C(=O)N[C@@H](Cc2cnc[nH]2)C(=O)N[C@@H](CO)C(=O)N2C[C@H](O)C[C@H]2C(=O)N[C@@H](Cc2c[nH]c3ccccc23)C(=O)N[C@@H](CO)C(=O)N[C@@H](Cc2cn(CC(=O)O)c3ccccc23)C(=O)N1C [Example 6202] ({CH2CO}-Y[NMeA]NPHS[Hyp]WS[Trp(1-CH2COOH)][NMeNle][NMeNle]RCG-NH2; thioether N-14) | 10 to 99.9 | –
CCCC[C@H]1C(=O)N2CCOC[C@@H]2C(=O)N[C@@H](CC(=O)O)C(=O)N[C@@H](C(C)C)C(=O)N(C)[C@@H](Cc2ccccc2)C(=O)N[C@@H](Cc2ccc(O)cc2)C(=O)N2CCC[C@@H]2C(=O)N[C@@H](Cc2c[nH]c3ccccc23)C(=O)N[C@@H](Cc2ccc(O)cc2)C(=O)N[C@@H](CCOC)C(=O)N[C@H](C(=O)NCC(N)=O)CSCC(=O)N[C@@H](Cc2cc(F)c(F)c(F)c2)C(=O)N(C)[C@@H](Cc2ccccc2)C(=O)N1C [Example 10185] ({CH2CO}-[Phe(3,4,5-F3)][NMeF][NMeNle][X1]DV[NMeF]Y[dP]WY[hSer](Me)CG-NH2; thioether N-13) | 1 to 9.9 | –

Reference: US10538555B2, “Macrocyclic inhibitors of the PD-1/PD-L1 and CD80(B7-1)/PD-L1 protein/protein interactions” (BRISTOL-MYERS SQUIBB COMPANY, priority 2014, dated 2020)
